The source of these data is paper PMC10341698, “Identification of Anti-Influenza A Compounds Inhibiting the Viral Non-Structural Protein 1 (NS1) Using a Type I Interferon-Driven Screening Strategy” (International Journal of Molecular Sciences, 2023).

In one series the test system is NS1. As to conditions: cited from earlier work.
The test system of a further series is 2′5′ OAS mRNA. The series can be described thus: qRT-PCR of OAS mRNA in infected A549 cells. The series is classed as cell-based, human. The note with it: A/PR/8/34(H1N1)-infected A549 cells, 24 h p.i., normalized with GAPDH and HAU.
In another series the test system is PKR mRNA. The series can be described thus: qRT-PCR of PKR mRNA in infected A549 cells. The note with it: A/PR/8/34(H1N1)-infected A549 cells, 24 h p.i., normalized with GAPDH and HAU. The series is classed as cell-based, human. For orientation: Quantitative PCR measures a nucleic acid by following its amplification.
Series [1] deals with A(H1N1)pdm09 NS1. The series can be described thus: IFN-β promoter luciferase screening of the diverse library (glow type). The series is classed as cell-based, A(H1N1)pdm09 influenza virus. As to conditions: HEK 293 cells; for increase of IFN-β promoter stimulation: 50 μM, 42 h treatment, glow luciferase, single experiment.
In another series the test system is RNase L mRNA. Kind of series: qRT-PCR of RNase L mRNA in infected A549 cells. It counts as cell-based, human. As to conditions: A/PR/8/34(H1N1)-infected A549 cells, 24 h p.i., normalized with GAPDH and HAU.
Series [2] concerns A(H1N1)pdm09 NS1. Kind of series: Confirmation in the IFN-β luciferase system (flash type). It counts as cell-based, A(H1N1)pdm09 influenza virus. As to conditions: HEK 293 cells, 50 μM.
The subject of another series is IFN-β mRNA. The series can be described thus: qRT-PCR of IFN-β mRNA in infected A549 cells. The note with it: A/PR/8/34(H1N1)-infected A549 cells, 24 h p.i., normalized with GAPDH and HAU. The series is classed as cell-based, human.
The subject of series [3] is influenza virus A/PR/8/34(H1N1). The series can be described thus: microbe, parasite or virus in culture. The note with it: unidentified influenza virus, A549, 24 h.
The next series in a line: in vitro. As to conditions: human.
The subject of series [4] is IFN-β promoter luciferase reporter. It counts as cell-based, human.
For series [5], the system named is influenza virus A/PR/8/34(H1N1). The note with it: A549 cells; for reduction of viral replication: 50 µM, 3 h before infection, MOI 0.1, 24 h p.i., HAU.
In another series the test system is A549 cells. The note with it: human, 48 h.

Protocol for in vitro: Cytotoxic concentration to cause death to 50% of viable cells (CC50) was calculated by neutral red uptake assay (NRU) assay [64]. In brief, 1 × 10^4 A549 cells were seeded in 96-well plates and exposed to different concentrations of cpds 157, 164 (25, 50, 100, 200, and 400 μM) or equivalent volumes of DMSO as a control for 48 h. At the end of the exposure time, cells were washed with phosphate-buffered saline (PBS) before being incubated for 3 h in a medium supplemented with neutral red (50 μg/mL). The medium was washed off rapidly with PBS, and cells were incubated for a further 15′ at R.T. in a mixture of 1% acetic acid and 50% ethanol to extract the dye. Absorbance was then measured at 540 nm using a micro-plate reader (Biorad). Neutral red powder was purchased from Sigma-Aldrich. The percentage of cell death for each compound concentration, compared to the corresponding DMSO amount in untreated controls (y-axis), was plotted against increasing cpd concentrations (x-axis). Data were transformed in log scale [x = log(x)], and a linear regression analysis was used to calculate the CC50 concentration.

As usually defined, the EC50 is the concentration that produces a half-maximal response. In the case of `Nc1ccccc1C(=O)NCCCc1ccccc1` [A22], the EC50 in the series with NS1 was roughly 0.05 µM.

The term IC50 denotes the midpoint of a concentration-inhibition curve. A high value points to a need for much substance. For the compound `CCc1ccc(NC(=O)COC(=O)c2ccc3ccccc3n2)cc1` [Compound 157], the “fold increase for 2′5′ OAS” value in the series with 2′5′ OAS mRNA was 2.3 fold. In addition, in the series on PKR mRNA, the “fold increase for PKR” value was determined as 4.5 fold. Moreover, the “increase of IFN-β promoter stimulation” value with A(H1N1)pdm09 NS1 [1] was “at least 50%”. Also, the “fold increase for RNase L” value with RNase L mRNA is recorded as 2.5 fold. The “restoration of the luciferase signal” value with A(H1N1)pdm09 NS1 [2] is “significant restoration of the luciferase signal”. In the series with IFN-β mRNA, the “fold increase in IFN-β mRNA accumulation” value came to 2.7 fold. In [3], this compound registered an IC50 of 51.6 µM. Moreover, in the series “in vitro”, the CC50 at 48 h was greater than 400 µM. Moreover, the “non-specific activity on the reporter, alone or with IFN inducer, without NS1” value in [4] is “without showing non-specific activities”. In series [5], the “therapeutic index (CC50/IC50)” value is listed as greater than 7.8 and the “reduction of viral replication” value is 50%.

Consider `O=C(CSc1nnnn1-c1ccccc1)NCc1ccccc1` [Compound 164], for which the “fold increase for 2′5′ OAS” value in the series on 2′5′ OAS mRNA is given as 1.7 fold. For the same compound, the “fold increase for PKR” value in the series on PKR mRNA is given as 1.7 fold. The “increase of IFN-β promoter stimulation” value with A(H1N1)pdm09 NS1 [1] was “at least 50%”. In the series with RNase L mRNA, the “fold increase for RNase L” value was determined as 2.3 fold. In addition, the “restoration of the luciferase signal” value with A(H1N1)pdm09 NS1 [2] is recorded as “significant restoration of the luciferase signal”. Also, the CC50 in the series with A549 cells worked out at 169 µM. Also, the “fold increase in IFN-β mRNA accumulation” value with IFN-β mRNA stood at 3.2 fold. The same compound returned an IC50 in [3] of 46.4 µM. This compound yielded a CC50 at 48 h in “in vitro” greater than 150 µM. Further, the “non-specific activity on the reporter, alone or with IFN inducer, without NS1” value in [4] is “without showing non-specific activities”. For the same compound, in series [5], the “therapeutic index (CC50/IC50)” value was found to be 3.6 and the “reduction of viral replication” value turned out to be 60%.

Regarding `O=C(NCCCc1ccccc1)c1ccccc1O` [JJ3297, reference compound], in the series with A(H1N1)pdm09 NS1 [1] (5 μM), the “IFN-β promoter assay with the reference NS1 inhibitor” value is reported as “specificity of the IFN-β promoter assay was also confirmed”. Besides, the EC50 in the series on NS1 is 0.8 µM.

In the case of `O=C(N/N=C/c1ccc2c(c1)CCC2)c1ccccc1O` [NSC125044], the 50% effective concentration (EC50) in the series with NS1 is 8 µM.
